Assay results from the NIST ThermoML archive (doi:10.1021/je030163d).
± gives the expanded uncertainty stated by the source.

Key:
[1] = xn = mol fraction of the nth substance listed; settings: 101.3 kPa, Liquid, x1 = 1; for viscosity: Capillary tube (Ostwald / Ubbelohde) method; for mass density: Pycnometric method
[2] = 101.3 kPa, Liquid; for viscosity: Capillary tube (Ostwald / Ubbelohde) method; for mass density: Pycnometric method

SMILES	viscosity ([1]; 298.15 K) [mPa·s]	mass density ([1]; 298.15 K) [kg/m3]	viscosity ([1]; 303.15 K) [mPa·s]	mass density ([1]; 303.15 K) [kg/m3]	viscosity ([1]; 308.15 K) [mPa·s]	mass density ([1]; 308.15 K) [kg/m3]	viscosity ([1]; 313.15 K) [mPa·s]	mass density ([1]; 313.15 K) [kg/m3]	viscosity ([2]; 298.15 K) [mPa·s]	mass density ([2]; 298.15 K) [kg/m3]	viscosity ([2]; 303.15 K) [mPa·s]	mass density ([2]; 303.15 K) [kg/m3]	viscosity ([2]; 308.15 K) [mPa·s]	mass density ([2]; 308.15 K) [kg/m3]	viscosity ([2]; 313.15 K) [mPa·s]	mass density ([2]; 313.15 K) [kg/m3]
CN(C)C=O [dimethylformamide] + OCc1ccccc1	0.803 ± 0.006	944.5 ± 0.3	0.756 ± 0.006	939.8 ± 0.3	0.71 ± 0.005	935.1 ± 0.3	0.673 ± 0.005	930.2 ± 0.4	–	–	–	–	–	–	–	–
CN(C)C=O [dimethylformamide] + CC(=O)c1ccccc1	0.803 ± 0.006	944.5 ± 0.3	0.756 ± 0.006	939.8 ± 0.3	0.71 ± 0.005	935.1 ± 0.3	0.673 ± 0.005	930.2 ± 0.4	–	–	–	–	–	–	–	–
OCc1ccccc1 [benzenemethanol]	–	–	–	–	–	–	–	–	5.16 ± 0.031	1041.3 ± 0.4	4.67 ± 0.028	1037.5 ± 0.4	4.004 ± 0.024	1033.7 ± 0.4	3.52 ± 0.021	1029.4 ± 0.4
CC(=O)c1ccccc1 [acetophenone]	–	–	–	–	–	–	–	–	1.68 ± 0.013	1024.1 ± 0.6	1.54 ± 0.012	1019.9 ± 0.6	1.41 ± 0.011	1015.7 ± 0.6	1.31 ± 0.01	1011.2 ± 0.6
CN(C)C=O [dimethylformamide]	–	–	–	–	–	–	–	–	0.803 ± 0.006	944.5 ± 0.3	0.756 ± 0.006	939.8 ± 0.3	0.71 ± 0.005	935.1 ± 0.3	0.673 ± 0.005	930.2 ± 0.4
